According to PMC8429736, “Pharmacological characterization of mutant huntingtin aggregate-directed PET imaging tracer candidates” (Scientific Reports, 2021):

Experiments:
[1] = target: beta amyloid plaques (6E10 antibody) (Homo sapiens, UniProt P05067); test: HR ARG co-registration with 6E10 antibody, human AD brain sections; format: binding; conditions: 10 nM CHDI-180, 10 nM CHDI-626, 0.1 nM PiB, 1 nM T808
[2] = In vitro ARG, single concentration, WT mouse brain sections; format: binding; conditions: 0.5 nM
Experimental: (§1) Twenty µm-thick sections were prepared from brains of disease mouse models and WT mice or human post-mortem brain samples by using a cryostat, mounted on superfrost slides and stored at -80 °C for a maximum of 2 weeks. On the day of the experiment, slides were adapted to room temperature for 30 min and then equilibrated by immersion into assay buffer (50 mM Tris–HCl pH 7.4; 120 mM NaCl; 5 mM KCl; 2 mM CaCl2; 1 mM MgCl2) for 20 min at room temperature.
Radioligand solutions were prepared in assay buffer. Optimal radioligand concentrations were determined in advance based on signal-to-background ratio obtained in mouse or human brain tissue. The solutions were mixed in a Coplin jar (Sigma, S5516-6EA) by gently shaking at 175 rpm for 10 min at room temperature. Sections were incubated by immersion into assay buffer containing either only radioligand (total binding or TB) or radioligand plus 10 µM of unlabeled compound (non-specific binding or NSB) for 60 min at room temperature. Afterwards slides were washed three times for 10 min with ice-cold washing buffer (50 mM Tris–HCl (pH 7.4)) at 4 °C and dipped for three seconds in ice-cold distilled water to remove buffer salts. The slides were dried for 3 h at 30 °C and exposed for 96 h to a Tritium Phosphor Screen (GE Healthcare, Fuji BAS-TR 2025 E) Stored radiation energy on the screen was scanned using a Phosphorimager (GE Healthcare, Typhoon FLA 7000). Densitometric data analysis of radioligand binding was performed using the MCID Analysis 7.1 software (Interfocus Imaging Ltd.). Radioisotope concentration standards (American Radiolabeled Chemicals, ART 0123C and ART 0123B) were exposed with each specimen to enable conversion of density values into tissue-equivalent ligand concentrations (e.g., fmol/mg tissue). A standard curve was created to relate the system´s internal relative optical density measurement (ROD; an inverse logarithmic function of gray level values) to the set of standard values (e.g., isotope concentration). The standard´s isotope concentration (e.g., nCi/mg) is therefore converted into tissue-equivalent ligand concentrations (e.g., fmol/mg tissue) by referring to the radioligand´s specific activity (e.g., Ci/mmol) and including decay-correction. After phosphor screen exposure the human brain sections were stained for 4 min with 0.1% toluidine blue dye solution (Sigma-Aldrich) and rinsed twice in distilled water. To differentiate gray and white matter, the slides were decolorized with 70% ethanol (Merck) for 2–5 min followed by rinse in distilled water. Gray matter appears as gray color and white matter as bluish.

[3] = tested on: mHTT aggregates in R6/2 mice brain sections; test: In vitro ARG, R6/2 mouse brain sections; format: binding; conditions: 4-, 8- and 12-week-old R6/2 mice
Experimental: as §1
Radioligand solutions were prepared in assay buffer. Optimal radioligand concentrations were determined in advance based on signal-to-background ratio obtained in mouse or human brain tissue. The solutions were mixed in a Coplin jar (Sigma, S5516-6EA) by gently shaking at 175 rpm for 10 min at room temperature. Sections were incubated by immersion into assay buffer containing either only radioligand (total binding or TB) or radioligand plus 10 µM of unlabeled compound (non-specific binding or NSB) for 60 min at room temperature. Afterwards slides were washed three times for 10 min with ice-cold washing buffer (50 mM Tris–HCl (pH 7.4)) at 4 °C and dipped for three seconds in ice-cold distilled water to remove buffer salts. […]

[4] = target: phospho-Tau tangles (AT8 antibody) (Homo sapiens, UniProt P10636); test: HR ARG co-registration with AT8 antibody, human AD brain sections; format: binding; conditions: 10 nM CHDI-180, 10 nM CHDI-626, 0.1 nM PiB, 1 nM T808
phospho-Tau tangles (AT8 antibody), sequence (P10636 623-695 limits assumed): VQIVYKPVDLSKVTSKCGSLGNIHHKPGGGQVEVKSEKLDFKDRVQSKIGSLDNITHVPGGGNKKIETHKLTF

R6/2 brain homogenates = test: RBA with R6/2 brain homogenates; format: binding, mouse; conditions: data not shown
Experimental: For RBA in vitro binding assays, brain tissue was sliced (50 µm), weighed and homogenized in PBS (Gibco, 14190-94), 0.1% BSA with a glass pestle (10 strokes) at a concentration of 12–15 mg wet tissue per mL buffer. The crude homogenate concentration was then adjusted to 10 mg/mL (wet tissue) and stored as single-use aliquots at -80 °C.
For saturation binding experiments, aggregate lysate preparation and final concentration in the assay, assay buffer, incubation times and plate processing were identical to the competition format. Radioligand was titrated up to 100 nM. Raw cpm were converted into nM using a calibration line of total added radioligand without washing and filtering (spiked onto the filter plate and dried) (e.g., X) and normalized to the concentration of protein (e.g., Y) to finally obtain […] (e.g., X/Y). Specific binding (SB) was calculated as full binding minus full competition (in the presence of excess unlabeled ligand) and a hyperbolic mono-phasic fit was applied using GraphPad Prism to determine Kd and Bmax.

Exon1-Q46 aggregates = target: T1, Exon1-Q46 aggregates (Homo sapiens, UniProt P42858, INS38QQQQQQQQQQQQQQQQQQQQQQQQQ); test: RAFTA saturation binding, recombinant Exon1-Q46 aggregates
T1 construct: MBP-HTT(1-89)Q46-His(6x); MBP (N, cleaved yes); made in house; host or cells: E. coli BL21 (DE3)
T1 sequence (P42858 with tags, fused parts or gaps with the stated changes): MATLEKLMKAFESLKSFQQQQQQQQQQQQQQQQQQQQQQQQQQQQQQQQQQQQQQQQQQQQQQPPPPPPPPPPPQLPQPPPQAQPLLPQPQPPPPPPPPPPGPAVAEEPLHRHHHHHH

beta amyloid plaques (6E10 antibody), sequence (P05067 672-713 limits assumed): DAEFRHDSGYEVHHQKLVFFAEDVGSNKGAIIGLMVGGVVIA

**Q.** Which results are given for `COc1ccc(COc2ccc3oc(-c4ccc(=O)n(C)n4)nc3c2)nc1` [CHDI-180]?
**A.** co-registration with 6E10-positive beta amyloid plaques [1]: low density binding; NSB ([2]; 3 month WT, CTX): 0.6 ± 0.5 fmol/mg; SB ([2]; 3 month WT, CTX): 1.3 ± 1.0 fmol/mg; TB ([2]; 3 month WT, CTX): 1.9 ± 0.5 fmol/mg; NSB ([2]; 3 month WT, HPC): 0.5 ± 0.6 fmol/mg; SB ([2]; 3 month WT, HPC): 1.6 ± 0.6 fmol/mg; TB ([2]; 3 month WT, HPC): 2.0 ± 0.4 fmol/mg; NSB ([2]; 3 month WT, STR): 0.7 ± 0.6 fmol/mg; SB ([2]; 3 month WT, STR): 1.1 ± 0.4 fmol/mg; TB ([2]; 3 month WT, STR): 1.8 ± 0.3 fmol/mg; NSB ([2]; 6 month WT, CTX): 0.5 ± 0.6 fmol/mg; SB ([2]; 6 month WT, CTX): 1.2 ± 0.5 fmol/mg; TB ([2]; 6 month WT, CTX): 1.8 ± 0.1 fmol/mg; NSB ([2]; 6 month WT, HPC): 0.6 ± 0.8 fmol/mg; SB ([2]; 6 month WT, HPC): 1.5 ± 0.1 fmol/mg; TB ([2]; 6 month WT, HPC): 2.2 ± 0.7 fmol/mg; NSB ([2]; 6 month WT, STR): 0.4 ± 0.5 fmol/mg; SB ([2]; 6 month WT, STR): 1.6 ± 0.1 fmol/mg; TB ([2]; 6 month WT, STR): 2.0 ± 0.6 fmol/mg; NSB ([2]; 9 month WT, CTX): 0.1 ± 0.2 fmol/mg; SB ([2]; 9 month WT, CTX): 1.2 ± 0.2 fmol/mg; TB ([2]; 9 month WT, CTX): 1.3 ± 0.4 fmol/mg; NSB ([2]; 9 month WT, HPC): 0.6 ± 0.8 fmol/mg; SB ([2]; 9 month WT, HPC): 1.1 ± 0.5 fmol/mg; TB ([2]; 9 month WT, HPC): 1.8 ± 0.5 fmol/mg; NSB ([2]; 9 month WT, STR): 0.0 ± 0.0 fmol/mg; SB ([2]; 9 month WT, STR): 1.6 ± 0.1 fmol/mg; TB ([2]; 9 month WT, STR): 1.6 ± 0.1 fmol/mg; NSB ([2]; 12 month WT, CTX): 0.1 ± 0.1 fmol/mg; SB ([2]; 12 month WT, CTX): 1.2 ± 0.2 fmol/mg; TB ([2]; 12 month WT, CTX): 1.3 ± 0.3 fmol/mg; NSB ([2]; 12 month WT, HPC): 0.0 ± 0.1 fmol/mg; SB ([2]; 12 month WT, HPC): 1.6 ± 0.5 fmol/mg; TB ([2]; 12 month WT, HPC): 1.6 ± 0.4 fmol/mg; NSB ([2]; 12 month WT, STR): 0.2 ± 0.2 fmol/mg; SB ([2]; 12 month WT, STR): 1.2 ± 0.2 fmol/mg; TB ([2]; 12 month WT, STR): 1.3 ± 0.0 fmol/mg; specific binding to STR, CTX and HPC with age [3]: age-dependent increase in specific binding; co-registration with AT8-positive phospho-Tau immunoreactivity [4]: did not co-register; binding signal (R6/2 brain homogenates): no appropriate binding signal; Kd (Exon1-Q46 aggregates): 5.6 nM; RAFTA Bmax (Exon1-Q46 aggregates): 1456 fmol/mg
